Data from PMC10930102 (Journal of Enzyme Inhibition and Medicinal Chemistry, 2024).

Experiments:
ALK C1156Y = target: T1, ALK C1156Y (Homo sapiens, UniProt Q9UM73, C1156Y); assay: ALK mutant in vitro enzymatic assay; assay type: biochemical; details: 20 μM ATP
T1 construct: purchased Reaction Biology Corporation

ALK G1202R = target: T2, ALK G1202R (Homo sapiens, UniProt Q9UM73, G1202R); assay: ALK mutant in vitro enzymatic assay; assay type: biochemical; details: 20 μM ATP
T2 construct: purchased Reaction Biology Corporation

CYP2C19 = target: T3, CYP2C19 (Homo sapiens, UniProt P33261); assay: CYP450 inhibition assay; assay type: in vitro ADME; details: human recombinant enzyme
T3 construct: purchased Reaction Biology Corporation; host or cells: CYP cDNA baculovirus expression systems
Method: Assays were performed by Reaction Biology Corporation. […] CYP assays used human recombinant CYP1A2, CYP2C9, CYP2C19, CYP2D6, and CYP3A4 expressed in CYP cDNA baculovirus expression systems. […] Substrates used were 3-cyano-7-ethoxycoumarin for CYP1A2, 2C19, and 2D6; Vivid OOMR Substrate for CYP2C9; and Vivid BOMR Substrate for CYP3A4. hERG inhibition assays involved a binding competition between the tested compounds and a fluorescently labelled compound tracer (Predictor hERG Tracer Red) for membrane-bound hERG (Predictor hERG Membrane). E-4031 served as the positive control.

HepG2 = assay: SRB antiproliferation assay; assay type: cell-based; details: Homo sapiens, 48 h, read-out: Antiproliferative activity (IC50) HepG2
IGF1R = target: T4, IGF1R (Homo sapiens, UniProt P08069); assay: RTK in vitro enzymatic assay; assay type: biochemical; details: 20 μM ATP
T4 construct: purchased Reaction Biology Corporation
T4 sequence (P08069 31-1367): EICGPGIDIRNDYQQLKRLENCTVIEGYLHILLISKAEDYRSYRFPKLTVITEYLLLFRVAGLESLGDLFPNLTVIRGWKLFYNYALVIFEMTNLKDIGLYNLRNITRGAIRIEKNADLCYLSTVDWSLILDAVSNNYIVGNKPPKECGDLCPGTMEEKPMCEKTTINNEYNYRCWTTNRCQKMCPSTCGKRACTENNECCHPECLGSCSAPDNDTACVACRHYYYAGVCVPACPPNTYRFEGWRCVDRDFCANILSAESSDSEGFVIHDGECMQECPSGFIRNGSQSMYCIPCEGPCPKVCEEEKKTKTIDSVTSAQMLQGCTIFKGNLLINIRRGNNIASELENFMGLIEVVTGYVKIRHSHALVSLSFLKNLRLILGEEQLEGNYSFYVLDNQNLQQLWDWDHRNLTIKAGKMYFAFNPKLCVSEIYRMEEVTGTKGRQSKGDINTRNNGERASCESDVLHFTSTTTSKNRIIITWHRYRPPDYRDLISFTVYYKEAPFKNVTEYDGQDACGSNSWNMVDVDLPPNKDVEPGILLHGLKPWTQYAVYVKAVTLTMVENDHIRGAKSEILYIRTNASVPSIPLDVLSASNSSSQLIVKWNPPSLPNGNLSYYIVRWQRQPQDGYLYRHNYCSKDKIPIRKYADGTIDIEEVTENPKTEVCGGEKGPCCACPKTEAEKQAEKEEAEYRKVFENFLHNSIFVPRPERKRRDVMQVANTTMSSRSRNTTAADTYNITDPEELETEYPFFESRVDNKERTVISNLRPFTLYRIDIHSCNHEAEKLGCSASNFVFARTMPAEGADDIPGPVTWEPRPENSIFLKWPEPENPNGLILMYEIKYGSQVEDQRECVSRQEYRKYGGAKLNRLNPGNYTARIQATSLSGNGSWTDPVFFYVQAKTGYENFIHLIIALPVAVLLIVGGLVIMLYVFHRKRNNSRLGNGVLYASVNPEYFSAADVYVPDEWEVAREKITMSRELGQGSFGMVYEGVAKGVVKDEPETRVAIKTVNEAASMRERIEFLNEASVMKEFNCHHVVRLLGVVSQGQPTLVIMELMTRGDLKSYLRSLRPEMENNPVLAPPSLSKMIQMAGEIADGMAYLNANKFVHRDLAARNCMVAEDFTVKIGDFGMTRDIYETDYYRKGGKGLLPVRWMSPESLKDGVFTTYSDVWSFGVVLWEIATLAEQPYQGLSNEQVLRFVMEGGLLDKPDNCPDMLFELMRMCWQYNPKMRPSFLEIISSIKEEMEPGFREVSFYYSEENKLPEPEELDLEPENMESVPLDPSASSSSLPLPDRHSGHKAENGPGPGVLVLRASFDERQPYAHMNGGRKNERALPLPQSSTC

T3 sequence (P33261 whole entry): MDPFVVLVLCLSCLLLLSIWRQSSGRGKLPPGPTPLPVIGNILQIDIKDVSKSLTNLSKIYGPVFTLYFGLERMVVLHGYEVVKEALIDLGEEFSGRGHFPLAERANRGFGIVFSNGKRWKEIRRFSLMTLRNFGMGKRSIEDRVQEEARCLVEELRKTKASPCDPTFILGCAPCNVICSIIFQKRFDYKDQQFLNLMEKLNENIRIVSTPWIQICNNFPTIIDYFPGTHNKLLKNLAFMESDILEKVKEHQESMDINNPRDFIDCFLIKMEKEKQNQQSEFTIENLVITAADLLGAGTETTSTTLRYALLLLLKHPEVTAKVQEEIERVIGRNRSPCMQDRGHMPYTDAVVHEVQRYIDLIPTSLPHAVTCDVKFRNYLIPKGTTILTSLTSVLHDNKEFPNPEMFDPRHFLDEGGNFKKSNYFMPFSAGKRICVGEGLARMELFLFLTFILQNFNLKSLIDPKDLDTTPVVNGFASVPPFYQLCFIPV
T2 sequence (Q9UM73 19-1620 G1202R): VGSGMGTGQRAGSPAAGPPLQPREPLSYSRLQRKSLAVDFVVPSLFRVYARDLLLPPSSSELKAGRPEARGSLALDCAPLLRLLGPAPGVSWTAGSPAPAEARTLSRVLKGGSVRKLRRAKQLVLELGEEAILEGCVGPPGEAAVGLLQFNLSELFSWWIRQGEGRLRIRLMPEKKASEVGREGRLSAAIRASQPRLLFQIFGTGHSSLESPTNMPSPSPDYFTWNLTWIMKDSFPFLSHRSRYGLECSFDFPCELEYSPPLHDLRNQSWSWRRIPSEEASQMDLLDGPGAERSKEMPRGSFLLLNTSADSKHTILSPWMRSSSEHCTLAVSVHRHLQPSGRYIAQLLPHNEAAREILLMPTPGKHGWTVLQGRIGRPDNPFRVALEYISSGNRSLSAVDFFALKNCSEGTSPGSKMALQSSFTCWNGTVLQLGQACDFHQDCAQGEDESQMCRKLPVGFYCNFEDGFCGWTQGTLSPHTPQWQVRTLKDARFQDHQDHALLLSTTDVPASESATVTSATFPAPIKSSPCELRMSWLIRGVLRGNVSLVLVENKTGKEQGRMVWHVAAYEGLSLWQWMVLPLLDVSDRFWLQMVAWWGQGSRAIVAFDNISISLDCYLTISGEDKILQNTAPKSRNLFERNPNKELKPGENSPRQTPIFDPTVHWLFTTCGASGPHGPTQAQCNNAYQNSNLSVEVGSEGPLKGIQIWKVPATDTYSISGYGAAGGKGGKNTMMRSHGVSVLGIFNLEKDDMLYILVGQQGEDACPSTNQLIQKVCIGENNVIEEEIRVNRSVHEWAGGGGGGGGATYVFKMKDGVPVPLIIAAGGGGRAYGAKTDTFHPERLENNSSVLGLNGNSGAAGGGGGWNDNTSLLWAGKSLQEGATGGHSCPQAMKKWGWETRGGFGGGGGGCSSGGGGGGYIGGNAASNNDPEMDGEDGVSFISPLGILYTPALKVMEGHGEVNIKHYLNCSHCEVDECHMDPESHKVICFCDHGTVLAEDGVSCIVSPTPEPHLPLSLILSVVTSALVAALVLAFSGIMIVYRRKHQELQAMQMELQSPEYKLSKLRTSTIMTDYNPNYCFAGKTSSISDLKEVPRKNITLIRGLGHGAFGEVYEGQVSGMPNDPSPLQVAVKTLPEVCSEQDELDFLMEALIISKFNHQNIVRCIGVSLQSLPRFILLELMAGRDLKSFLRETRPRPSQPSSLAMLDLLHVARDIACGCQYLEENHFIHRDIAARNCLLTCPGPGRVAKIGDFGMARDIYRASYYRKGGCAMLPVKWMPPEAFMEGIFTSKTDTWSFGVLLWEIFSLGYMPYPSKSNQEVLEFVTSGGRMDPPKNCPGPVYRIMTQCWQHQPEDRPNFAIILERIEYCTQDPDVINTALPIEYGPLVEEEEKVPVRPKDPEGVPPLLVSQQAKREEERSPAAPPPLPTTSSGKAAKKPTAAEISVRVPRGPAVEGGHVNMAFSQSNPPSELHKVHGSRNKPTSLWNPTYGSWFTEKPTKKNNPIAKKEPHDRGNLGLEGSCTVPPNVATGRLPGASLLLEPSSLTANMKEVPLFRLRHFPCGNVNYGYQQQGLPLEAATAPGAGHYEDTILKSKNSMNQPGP
T1 sequence (Q9UM73 19-1620 C1156Y): as the sequence (Q9UM73 19-1620 G1202R) above, with C1138Y, R1184G counted along it

## CC(C)NC(=O)C1CCC(n2c(=NC(=O)c3ccccc3)[nH]c3cc(C=CC(=O)NO)ccc32)CC1 [Compound 3b, (E)-N-(5-((E)-3-(Hydroxyamino)-3-oxoprop-1-en-1-yl)-1-((1S,4S)-4-(isopropylcarbamoyl)cyclohexyl)-1H-benzo[d]imidazol-2(3H)-ylidene)benzamide]
ALK C1156Y
  IC50: 9.7 nM
ALK G1202R
  IC50: 51 nM
CYP2C19
  IC50: 7860 nM
HepG2
  IC50: 590 ± 90 nM
IGF1R
  IC50: 4840 nM
